In patent US9927437B2, “Treating neurodegenerative disease” (THE BRIGHAM AND WOMEN'S HOSPITAL, INC., priority 2013, dated 2018):

Tested on: primary astrocytes
Test: Activation of cultured primary astrocytes, mRNA expression
Format: cell-based, mouse
Conditions: for transcriptional response of astrocytes to LPS/IFNγ: 1 h pre-treatment (PDMP 25 μM; LacCer 10 μM), LPS 100 ng/ml and IFNγ 100 Units/ml, 6 h
Procedure: FIGS. 3a-m. LacCer produced by B4GALT6 acts in an autocrine manner to boost astrocyte activation. Cultured astrocytes were pre-treated for 1 h with PDMP (25 μM), LacCer (10 μM), both (LacCer+PDMP), or vehicle (vehicle), followed by activation with lipopolysaccharide (100 ng/ml) and Interferon-γ (100 Units/ml) (LPS/IFNγ) or left un-treated (control). (a) Heatmap depicting mRNA expression, as detected by Nanostring nCounter analysis, in astrocytes stimulated with LPS/IFNγ. Representative data of three independent experiments. (b) Histogram presentation of the normalized gene expression presented in (a), statistical analysis by one-way ANOVA followed by Tukey post-hoc analysis. (c-i) The expression of B4galt5 (shB4galt5), B4galt6 (shB4galt6) or non-targeting shRNA (ShControl) in C8-D30 astrocytes was knocked-down using verified shRNA (n≥4). (c) qRT analysis of B4galt5 and B4galt6 mRNA expression. (d-f) astrocytes were activated as in (a) and mRNA expression for (d) H2-Aa, (e) Ccl5 and (f) Cxcl10 was determined; expression is presented relative to house keeping gene (Gapdh) (n≥4). (g) Schematic map of the astrocyte-specific shRNA lentiviral vector. […] NOD mice were injected i.c.v. with 1×10^7 IU of shControl, shB4galt5 or shB4galt6 lentivirus, at day 35 after EAE induction (progressive phase). n=10 mice per group (h, i) 10 days after i.c.v. injection experiment was terminated and (h) b4galt5 and b4galt6 expression levels were determined by qPCR in astrocytes isolated from naïve or EAE NOD mice; expression normalized to gapdh and presented relative to that of cells from naïve mice. Representative data of two independent experiments, Statistical analysis by one-way ANOVA, followed by Tukey post-hoc analysis. (i) LacCer levels were quantified of in the CNS of naïve or EAE NOD mice treated as shown in (j). Statistical analysis by one-way ANOVA, followed by Tukey post-hoc analysis. (j) EAE clinical scores. Representative data of two independent experiments. Statistical analysis as in (FIG. 1a). (k) Cultured primary astrocytes were pre-treated for 1 h with PDMP (25 μM), LacCer (10 μM), both (LacCer+PDMP), or vehicle control (vehicle), followed by activation with LPS/IFNγ for 45 min, or left un-treated (control, Con). IRF-1 and Lamin B expression in the nuclear fraction analyzed by western blot and the degree of IRF-1 translocation to the nucleus was assessed by the ratio between the expression of IRF-1 and Lamin-B in the nuclear fractions following densitometric quantification on four independent experiments (right panel). Statistical analysis by one-way ANOVA, followed by Tukey post-hoc analysis. (l) ChIP analysis of the interaction of NF-κB, and IRF-1 with the) nos2 promoter in primary cultured astrocytes. Experimental design and data analysis as in (FIG. 4c). Data from two independent experiments (m) qPCR analysis of the expression of nos2, csf2, ccl2, ccl5, il6, and tlr2 in astrocyte cultures established from WT or IRF-1 deficient (IRF-1 KO) mice, pre-treated with LacCer or vehicle, and activated with LPS/IFNγ. […]
FIGS. 14a-g. […] (a) Cultured astrocytes were pre-treated for 1 h with PDMP (25 μM), LacCer (10 μM), both (LacCer+PDMP), or vehicle control (vehicle), followed by activation with LPS/IFNγ for 6 h, or left un-treated (control, Con). mRNA expression was analyzed 6 h following activation. qPCR analysis of the expression of cc/5, csf2, nos2, il6, H2-Aa, and tlr2 presented relative to gapdh. […]

Row | Compound | transcriptional response of astrocytes to LPS/IFNγ | astrocyte activation, LacCer added to PDMP (LacCer 10 μM + PDMP 25 μM, LPS/IFNγ) | h2-Aa, ccl5 and cxcl10 expression in B4GALT6 knocked-down astrocytes (astrocytes with shB4galt6, PDMP pre-treatment, LPS/IFNγ 6 h)
1 | lactosylceramide [LacCer] | boosted the response | overcame the suppressive effects of PDMP | 
2 | CCCCCCCCCC(=O)N[C@H](CN1CCOCC1)[C@H](O)c1ccccc1 [PDMP, D-threo-1-phenyl-2-decanoylamino-3-morpholino-1-propanol] | suppressed the transcriptional response |  | did not further suppress
